Data as given in PubChem BioAssay (NCI).
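Five concentrations, 48 hours, 96-well plates. Here, GI50 denotes the concentration required for 50% inhibition of growth. TGI marks complete inhibition of growth.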

Key:
Assay in all cases: NCI tumour cell line growth inhibition, 48 h
[1] = system: SK-MEL-28 melanoma
[2] = system: K-562 leukemia
[3] = system: UACC-62 melanoma
[4] = system: ACHN renal
[5] = system: MALME-3M melanoma
[6] = system: SW-620 colon
[7] = system: HCT-116 colon
[8] = system: COLO 205 colon
[9] = system: BT-549 breast
[10] = system: MCF7 breast

Row | Compound | TGI [1] [µM] | TGI [2] [µM] | TGI [3] [µM] | TGI [4] [µM] | TGI [5] [µM] | TGI [6] [µM] | TGI [7] [µM] | TGI [8] [µM] | GI50 [1] [µM] | GI50 [9] [µM] | TGI [9] [µM] | GI50 [2] [µM] | GI50 [3] [µM] | GI50 [4] [µM] | GI50 [6] [µM] | GI50 [10] [µM] | TGI [10] [µM] | GI50 [7] [µM] | GI50 [8] [µM]
1 | COc1cc2c(cc1O)CN1CCC23C=C[C@@H](O)CC13 (some centres undefined) | > 100 | > 100 | > 100 | > 100 | > 100 | > 100 | > 100 | 78.1 | – | – | – | – | – | – | – | – | – | – | –
2 | COC(=O)C1C(=O)O[C@@H](c2ccc(OC)c(OC)c2OC)C1C(=O)OC (mixture of isomers) | > 100 | > 100 | > 100 | > 100 | > 100 | > 100 | > 100 | > 100 | – | – | – | – | – | – | – | – | – | – | –
3 | CC1CCC(=O)C(C(O)CC2CC(=O)N(c3ccccc3)C(=O)C2)C1 (centres undefined) | > 100 | > 100 | > 100 | > 100 | > 100 | > 100 | > 100 | > 100 | – | – | – | – | – | – | – | – | – | – | –
4 | Cc1cc(=O)n(-c2c(C)cccc2Cl)c(/C=C(\O)c2ccncc2)n1 | > 100 | > 100 | > 100 | > 100 | > 100 | > 100 | > 100 | > 100 | – | – | – | – | – | – | – | – | – | – | –
5 | COc1ccc2c(c1)[n+](=O)c(C(=O)C/C(=N/NC(=O)C[N+](C)(C)C)C(=O)Nc1cccc(C)c1C)c(C)n2O | > 100 | > 100 | > 100 | > 100 | > 100 | > 100 | > 100 | > 100 | – | – | – | – | – | – | – | – | – | – | –
6 | CN(NC1OC(CO)C(O)C(O)C1O)c1ccccc1 (centres undefined) | > 100 | > 100 | > 100 | > 100 | > 100 | > 100 | > 100 | > 100 | – | – | – | – | – | – | – | – | – | – | –
7 | CN(C)CCn1cnc2ncccc2c1=O | > 100 | > 100 | > 100 | > 100 | > 100 | > 100 | > 100 | > 100 | – | – | – | – | – | – | – | – | – | – | –
8 | ClCc1ccc(Cn2cnc3c(Cl)ncnc32)cc1 | > 55.7 | > 63 | 19.5 | 11.5 | – | 19.4 | 17.4 | > 100 | > 28.1 | 21.9 | 45.8 | 15.4 | 9.76 | 4.04 | 7.67 | 4.65 | 55.7 | 10.4 | 13.7
9 | CCCCCCCCCCCCCCCCc1c(C(=O)OC)nc(NN)[nH]c1=O | > 50 | > 50 | > 50 | > 50 | > 50 | > 50 | > 50 | > 50 | – | – | – | – | – | – | – | – | – | – | –
10 | CC(=O)Nc1ccc(/C=C2\N=C(c3ccccc3)OC2=O)cc1 | > 100 | > 100 | > 60.1 | > 100 | > 100 | > 100 | > 100 | > 100 | – | – | – | – | – | – | – | – | – | – | –
11 | O=C(N/C(=C\c1ccccc1Cl)c1nc2ccccc2[nH]1)c1ccccc1 | > 100 | > 100 | > 100 | > 100 | 74.8 | > 100 | – | > 100 | – | – | – | – | – | – | – | – | – | – | –
12 | CCOC(=O)C(NO)C(Sc1ccccc1)c1ccc(OC)cc1 (centres undefined) | > 100 | – | > 100 | > 100 | > 100 | > 100 | > 100 | > 100 | – | – | – | – | – | – | – | – | – | – | –
